# Columns and labels:
# [1] = Selectivity index, ratio of CC50 for human MT4 cells to IC50 for HIV2 ROD; assay type: functional
# [2] = Cytotoxicity against human MT4 cells by MTT assay; assay type: cell-based
# [3] = Selectivity index, ratio of CC50 for human MT4 cells to IC50 for HIV1 3B; assay type: functional
# [4] = tested on: Human immunodeficiency virus 2; experiment: Antiviral activity against HIV2 ROD infected in MT4 cells assessed as inhibition of virus-induced cytopathogenicity by MTT assay; assay type: functional, organism-based; conditions: Human immunodeficiency virus 2, ISOLATE ROD
# Human alphaherpesvirus 3 [5] = experiment: Antiviral activity against thymidine kinase-deficient Varicella-zoster virus infected in HEL cells assessed as reduction in plaque formation; assay type: functional, organism-based; conditions: Human alphaherpesvirus 3, HEL
# [6] = tested on: Human immunodeficiency virus 1; experiment: Antiviral activity against HIV1 3B infected in MT4 cells assessed as inhibition of virus-induced cytopathogenicity by MTT assay; assay type: functional, organism-based; conditions: Human immunodeficiency virus 1, 3B
# Human alphaherpesvirus 3 [7] = experiment: Antiviral activity against Varicella-zoster virus Oka expressing thymidine kinase infected in HEL cells assessed as reduction in plaque formation; assay type: functional, organism-based; conditions: Human alphaherpesvirus 3, strain Oka vaccine
# [8] = Cytotoxicity against human HEL cells; assay type: cell-based
# Cytomegalovirus [9] = experiment: Antiviral activity against Cytomegalovirus Davis in HEL cells assessed as reduction in plaque formation; assay type: functional, organism-based; conditions: Human betaherpesvirus 5, Davis
# [10] = Cytotoxicity against human HEL cells assessed as alteration in cell morphology; assay type: cell-based
# Cytomegalovirus [11] = experiment: Antiviral activity against Cytomegalovirus AD-169 infected in HEL cells assessed as reduction in plaque formation; assay type: functional, organism-based; conditions: Human betaherpesvirus 5, AD-169, HEL
# Aspergillus niger [12] = experiment: Antifungal activity against Aspergillus niger MTCC 282; assay type: functional
# Aspergillus clavatus [13] = experiment: Antifungal activity against Aspergillus clavatus MTCC 1323; assay type: functional
# Candida albicans [14] = experiment: Antifungal activity against Candida albicans MTCC 227; assay type: functional
# Aspergillus niger [15] = experiment: Antifungal activity against Aspergillus niger MTCC 282 at 250 ug/ml after 74 hrs by Kirby-Bauer method; assay type: functional; conditions: MTCC 282, 74 h, read-out: IZ
# Aspergillus clavatus [16] = experiment: Antifungal activity against Aspergillus clavatus MTCC 1323 at 250 ug/ml after 74 hrs by Kirby-Bauer method; assay type: functional; conditions: MTCC 1323, 74 h, read-out: IZ
# Candida albicans [17] = experiment: Antifungal activity against Candida albicans MTCC 227 at 250 ug/ml after 74 hrs by Kirby-Bauer method; assay type: functional; conditions: MTCC 227, 74 h, read-out: IZ
# Pseudomonas aeruginosa [18] = experiment: Antibacterial activity against Pseudomonas aeruginosa MTCC 424 after 24 hrs by broth dilution method; assay type: functional; conditions: MTCC 424, 24 h
# Streptococcus pyogenes [19] = experiment: Antibacterial activity against Streptococcus pyogenes MTCC 442 after 24 hrs by broth dilution method; assay type: functional; conditions: MTCC 442, 24 h
# Escherichia coli [20] = experiment: Antibacterial activity against Escherichia coli MTCC 443 after 24 hrs by broth dilution method; assay type: functional; conditions: MTCC 443, 24 h
# Staphylococcus aureus [21] = experiment: Antibacterial activity against Staphylococcus aureus MTCC 96 after 24 hrs by broth dilution method; assay type: functional; conditions: MTCC 96, 24 h
# Pseudomonas aeruginosa [22] = experiment: Antibacterial activity against Pseudomonas aeruginosa MTCC 424 at 250 ug/ml after 24 hrs by Kirby-Bauer method; assay type: functional; conditions: MTCC 424, 24 h, read-out: IZ
# Escherichia coli [23] = experiment: Antibacterial activity against Escherichia coli MTCC 443 at 250 ug/ml after 24 hrs by Kirby-Bauer method; assay type: functional; conditions: MTCC 443, 24 h, read-out: IZ
# Streptococcus pyogenes [24] = experiment: Antibacterial activity against Streptococcus pyogenes MTCC 442 at 250 ug/ml after 24 hrs by Kirby-Bauer method; assay type: functional; conditions: MTCC 442, 24 h, read-out: IZ
# Staphylococcus aureus [25] = experiment: Antibacterial activity against Staphylococcus aureus MTCC 96 at 250 ug/ml after 24 hrs by Kirby-Bauer method; assay type: functional; conditions: MTCC 96, 24 h, read-out: IZ
compound,measurement,setting,value
CN1CCN(Cc2c([O-])on[n+]2-c2ccc(Cc3ccc(-[n+]4noc([O-])c4CN4CCN(C)C(c5ccccc5)C4)cc3)cc2)CC1c1ccccc1 (stereo not given),Ratio CC50/IC50,[1],<1
same,CC50,[2],14 µg/mL
same,Ratio CC50/IC50,[3],<1
same,IC50,[4],> 14 µg/mL
same,EC50,Human alphaherpesvirus 3 [5],> 20 µg/mL
same,IC50,[6],> 14 µg/mL
same,EC50,Human alphaherpesvirus 3 [7],> 20 µg/mL
same,CC50,[8],36.8 µg/mL
same,EC50,Cytomegalovirus [9],> 20 µg/mL
same,MCC,[10],100 µg/mL
same,EC50,Cytomegalovirus [11],> 20 µg/mL
same,MIC,Aspergillus niger [12],1000 µg/mL
same,MIC,Aspergillus clavatus [13],500 µg/mL
same,MIC,Candida albicans [14],500 µg/mL
same,zone of inhibition at 250 µg/mL,Aspergillus niger [15],20 mm
same,zone of inhibition at 250 µg/mL,Aspergillus clavatus [16],23 mm
same,zone of inhibition at 250 µg/mL,Candida albicans [17],18 mm
same,MIC,Pseudomonas aeruginosa [18],250 µg/mL
same,MIC,Streptococcus pyogenes [19],250 µg/mL
same,MIC,Escherichia coli [20],100 µg/mL
same,MIC,Staphylococcus aureus [21],500 µg/mL
same,zone of inhibition at 250 µg/mL,Pseudomonas aeruginosa [22],18 mm
same,zone of inhibition at 250 µg/mL,Escherichia coli [23],21 mm
same,zone of inhibition at 250 µg/mL,Streptococcus pyogenes [24],18 mm
same,zone of inhibition at 250 µg/mL,Staphylococcus aureus [25],16 mm

# From ChEMBL document CHEMBL3044741, “Synthesis of novel biologically active methylene derivatives of sydnones” (Med Chem Res, 2013)
